From patent publication US7951842B2, “Use of Cupuassu butter based amphoteric amidoamines as amphoteric surfactants” (Cognis Brasil Ltda., priority 2004, dated 2011)

Key:
animals = details: in vivo
Description: The toxicological profile of the Cupuassuamido propyl betaine was compared to Cocamido propyl betaine.

Description for Red Blood Cell: The Red Blood Cell Test (RBC) was carried out with the combination of Sodium Lauryl Ether Sulfate (SLES) and Cupuassuamido Propyl Betaine (CupAPB) or Sodium Lauryl Ether Sulfate (SLES) and Cocamido Propyl Betaine (CAPB) in different concentrations.

Cocamido propyl betaine
Cumulative Dermic Irritation (animals): Moderately irritating
Ocular Irritability (animals): Moderately irritating
Primary Dermic Irritation (animals): Minimum irritating

Cupuassuamido propyl betaine
Cumulative Dermic Irritation (animals): Minimum irritating
Ocular Irritability (animals): Not irritating
Primary Dermic Irritation (animals): Not irritating

Sodium Laureth Sulfate [SLES (7.10%)]
H/O (Red Blood Cell): 17.1
hemolysis (H) (Red Blood Cell): 275.0
oxidation (O) (Red Blood Cell): 16.10
